Common to all, as to assay: NCI-60 cell line screen, 48 h
The test system of assay [1] is CAKI-1 renal.
In assay [2] the test system is CCRF-CEM leukemia.
The test system of assay [3] is HL-60(TB) leukemia.
In assay [4] the test system is NCI-H23 lung.
Assay [5] relates to OVCAR-5 ovarian.
Assay [6] concerns SF-539 CNS.
Assay [7] relates to SNB-19 CNS.
Assay [8] concerns SNB-75 CNS.
The subject of assay [9] is UACC-257 melanoma.
For assay [10], the system named is SR leukemia.

Structures are written as SMILES. Several values for one entry are separate records, joined by “and”; a condition that tells them apart may be missing. Identical values can stand only once.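 Each compound was tested at five concentrations against cells in 96-well plates for 48 hours. GI50 marks 50% less growth. TGI marks complete inhibition of growth.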

As for `Cc1c2oc3c(C)cc(F)c(C(=O)NC4C(=O)NC(C(C)C)C(=O)N5CCCC5C(=O)N(C)CC(=O)N(C)C(C(C)C)C(=O)OC4C)c3nc-2c(C(=O)NC2C(=O)NC(C(C)C)C(=O)N3CCCC3C(=O)N(C)CC(=O)N(C)C(C(C)C)C(=O)OC2C)c(N)c1=O` (stereo not given), the TGI in [1] was 3.73 µM; in assay [2] it was 0.0385 µM and 0.309 µM; in assay [3], 0.161 µM; in assay [4], 0.897 µM and 6.26 µM; in assay [5], 10.2 µM; in assay [6], 1.41 µM and 0.727 µM. For the same compound, the TGI was 21.1 µM in [7]; 1.9 µM and 1.75 µM in assay [8]. Further, the GI50 in assay [5] was 0.0688 µM; in [8], 0.121 µM; in assay [9], 0.0732 µM.

Take `COc1ccc(C2C(C#N)=C(S)N(C3OC(CO)C(O)C(O)C3O)C(C)=C2C(C)=O)cc1` (stereo not given): the TGI in [2], in assay [3], in assay [4], in [5], in assay [6] and in assay [7] was greater than 100 µM in each case. Besides, the TGI in assay [8], in [10] and in assay [9] was greater than 100 µM each time.

In the case of `O=C(N[C@H]1CCC[C@H]1C(=O)Nc1ccc(C(F)(F)F)cc1)OCc1ccccc1`, the TGI in [1], in assay [2], in [3], in [4], in assay [5] and in assay [6] was greater than 100 µM in each case. Besides, the TGI in [7], in assay [10] and in [9] was greater than 100 µM each time.

`O=C1c2cc3c(cc2CC1Cc1ccc2c(c1)CCC2)CCC3` (stereo not given): the TGI in assay [2], in [3], in assay [4], in [5], in assay [6] and in assay [7] was greater than 100 µM each time. Also, the figures for the TGI in [8], in assay [10] and in [9] were 75.5 µM, 95.1 µM and greater than 100 µM, respectively.

Turning to `CC1=NN(C(=O)Cc2ccccc2)C(=O)/C1=C\c1ccccc1O`, the TGI in assay [1], in [2], in assay [3], in assay [4], in assay [5] and in assay [6] was greater than 100 µM each time. Further, the TGI in assay [7] and in assay [9] was greater than 100 µM each time.

Regarding `O=C1CCC2(c3ccc(Cl)cc3)Nc3ncncc3N12` (stereo not given), the TGI in assay [2], in [4], in assay [5], in assay [6], in assay [7] and in assay [8] was greater than 10 µM in each case. This compound registered a TGI in [9] greater than 10 µM.

Regarding `COc1cc(-c2nc3cc(Cl)c(Cl)cc3[nH]2)ccc1OCC(=O)N=Nc1c(O)[nH]c2ccc(Cl)cc12`, the GI50 in [2] was 0.28 µM; in [4], 0.489 µM; in assay [7], 0.447 µM; in assay [8], 1 µM; in [10], 0.252 µM. Further, the TGI in assay [2] stood at 5.27 µM; in assay [4] it was 3.09 µM; in [7], 3.33 µM; in assay [8] it was 3.93 µM; in [10] it was 1.39 µM.

Consider `C1=CN2C[n+]3ccc4ccccc4c3N=C2c2ccccc21`, for which the TGI in assay [1] is 50.2 µM; in assay [2] it was 23.7 µM; in assay [3], 9.1 µM; in [4], 21.4 µM; in [5], 47 µM; in [6] it was 14.8 µM. Moreover, the figures for the TGI in assay [7], in assay [10] and in assay [9] were 33.3 µM, 4.66 µM and 20.7 µM, respectively.

`O=C1CC(C(COCc2ccccc2)OCc2ccccc2)CC(=O)N1` (stereo not given): the TGI in assay [1], in assay [2], in assay [3], in assay [4], in assay [5] and in [6] was greater than 100 µM in each case. For the same compound, the TGI in [7], in assay [10] and in assay [9] was greater than 100 µM in each case.

Regarding `CC(=O)O[C@H]1C[C@](C)(O)[C@@]23CC([C@@H](OC(=O)C(C)(C)O)[C@@H](OC(C)=O)C2(COC(=O)c2ccccc2)[C@H]1OC(C)=O)C(C)(C)O3` (stereo not given in full), the TGI in assay [1], in assay [2], in assay [4], in assay [5], in assay [6] and in assay [7] was greater than 100 µM in each case. The compound further came in with a TGI in assay [9] greater than 100 µM.

With `CC1CCOc2ccc(cc2)C=Nc2ccc(cc2)-c2ccc(cc2)N=Cc2ccc(cc2)OCC1` (stereo not given), the TGI in [1], in assay [2], in assay [3], in assay [4], in [5] and in [6] was greater than 100 µM each time. Moreover, the TGI in assay [10] and in [9] was greater than 100 µM throughout.

Regarding `CC1=CC(=O)/C(=C/n2c(=S)[nH]c3cc(C)ccc32)C(=O)O1`, the TGI in assay [1], in assay [2], in assay [3], in assay [4], in assay [5] and in assay [6] was greater than 100 µM in each case. Besides, the TGI in assay [7], in assay [8] and in assay [9] was greater than 100 µM in each case.

With `COc1cc([C@@H]2c3cc4c(cc3[C@@H](c3c(O)cc(O)c5c3O[C@H](c3ccc(O)c(O)c3)[C@H](OC(=O)c3cc(O)c(O)c(O)c3)C5)[C@H]3COC(=O)[C@H]23)OCO4)cc(OC)c1O`, the TGI in [1] is greater than 100 µM; in assay [2], 59 µM; in [3] it was 56.3 µM; in assay [4] it was greater than 100 µM; in [5] it was greater than 100 µM; in assay [6] it was 60.1 µM. The TGI in assay [7] and in [9] was greater than 100 µM throughout.

Consider `COc1cccc([C@@H]2CC(=O)c3cc4c(cc3N2)OCO4)c1`, for which the TGI in assay [1], in [2], in [5], in assay [6], in assay [7] and in [8] was greater than 100 µM throughout. The TGI in assay [9] was greater than 100 µM.

These data come from PubChem BioAssay (NCI).
